For one series, the target named is T1, HNE (Calbiochem) (Homo sapiens, UniProt P08246).
T1 construct: purchased Calbiochem
T1 sequence (P08246 30-267): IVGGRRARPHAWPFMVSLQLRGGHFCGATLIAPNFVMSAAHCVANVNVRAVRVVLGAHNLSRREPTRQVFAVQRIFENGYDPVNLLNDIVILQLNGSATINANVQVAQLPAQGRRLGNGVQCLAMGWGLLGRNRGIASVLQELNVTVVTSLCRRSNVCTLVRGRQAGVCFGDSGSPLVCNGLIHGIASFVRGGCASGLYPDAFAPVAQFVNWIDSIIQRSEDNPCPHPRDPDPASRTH
Put plainly: HNE inhibition assay. The format is biochemical. The following applies: highest concentration tested 40 µM. Here is the method:
Compounds were dissolved in 100% DMSO at 5 mM stock concentrations. The final concentration of DMSO in the reactions was 1%, and this level of DMSO had no effect on enzyme activity. The HNE inhibition assay was performed in black flat-bottom 96-well microtiter plates. Briefly, a buffer solution containing 200 mM Tris–HCl, pH 7.5, 0.01% bovine serum albumin, and 0.05% Tween-20 and 20 mU/mL of HNE (Calbiochem) was added to wells containing different concentrations of each compound. The reaction was initiated by addition of 25 μM elastase substrate (N-methylsuccinyl-Ala–Ala-Pro-Val-7-amino-methyl-coumarin, Calbiochem) in a final reaction volume of 100 μL/well. Kinetic measurements were obtained every 30 s for 10 min at 25 °C using a Fluoroskan Ascent FL fluorescence microplate reader (Thermo Electron, MA) with excitation and emission wavelengths at 355 and 460 nm, respectively.
On to `O=C(OCn1c(-c2ccccc2)csc1=O)c1ccccc1` [Compound 5a, (2-Oxo-4-phenylthiazol-3(2H)-yl)methyl benzoate], for which the HNE inhibitory activity result was “inactivity”. Take `CC(=O)c1sc(=O)n(COC(=O)c2ccccc2)c1C` [Compound 5b, (5-Acetyl-4-methyl-2-oxothiazol-3(2H)-yl)methyl benzoate]: the HNE inhibitory activity entry was “inactivity”. Take `Cc1cccc(Cn2c(-c3ccccc3)csc2=O)c1` [Compound 5c, 3-(3-Methylbenzyl)-4-phenylthiazol-2(3H)-one]: the HNE inhibitory activity result is “inactive”. Turning to `O=C(OCOc1nc(-c2ccccc2)cs1)c1ccccc1` [Compound 6a, (4-Phenylthiazol-2-yloxy)methyl benzoate], the HNE inhibitory activity entry is “inactivity”. Same read-out and setting: the same measure for `CC(=O)c1sc(OCOC(=O)c2ccccc2)nc1C` [Compound 6b, (5-Acetyl-4-methylthiazol-2-yloxy)methyl benzoate]: “inactivity”; for `Cc1cccc(COc2nc(-c3ccccc3)cs2)c1` [Compound 6c, 2-(3-Methylbenzyloxy)-4-phenylthiazole]: “inactive”.

Tested on in another series: not given
Assay: not given
Details: not given
`O=C(Cn1c(-c2ccccc2)csc1=O)Nc1ccccc1` [Compound 2a, 2-(2-Oxo-4-phenylthiazol-3(2H)-yl)-N-phenylacetamide] registered a melting point of 177 to 179 °C.

As to `O=C(Cn1c(-c2ccccc2)csc1=O)Nc1c(Cl)cccc1Cl` [Compound 2b, N-(2,6-dichlorophenyl)-2-(2-oxo-4-phenylthiazol-3(2H)-yl)acetamide], the melting point was 213 to 216 °C. In the case of `CC(=O)c1sc(=O)n(CC(=O)Nc2ccccc2)c1C` [Compound 2c, 2-(5-Acetyl-4-methyl-2-oxothiazol-3(2H)-yl)-N-phenylacetamide], the melting point was in the range of 188 to 190 °C. In the case of `CC(=O)c1sc(=O)n(CC(=O)Nc2c(Cl)cccc2Cl)c1C` [Compound 2d, 2-(5-Acetyl-4-methyl-2-oxothiazol-3(2H)-yl)-N-(2,6-dichlorophenyl)acetamide], the melting point lay in the range of 209 to 211 °C. The compound `Cc1csc(=O)n1CC(=O)Nc1ccccc1` [Compound 2e, 2-(4-Methyl-2-oxothiazol-3(2H)-yl)-N-phenylacetamide] registered a melting point of 188 to 191 °C. `Cc1csc(=O)n1CC(=O)Nc1c(Cl)cccc1Cl` [Compound 2f, N-(2,6-dichlorophenyl)-2-(4-methyl-2-oxothiazol-3(2H)-yl)acetamide] yielded a melting point of 266 to 269 °C. Compound `Cc1cccc(-n2c(-c3ccccc3)csc2=O)c1` [Compound 3a, 4-Phenyl-3-m-tolyl-thiazol-2(3H)-one] came in with a melting point of 118 to 121 °C.

Compound `O=c1scc(-c2ccccc2)n1-c1cccc(C(F)(F)F)c1` [Compound 3b, 4-Phenyl-3-[3-(trifluoromethyl)phenyl]thiazol-2(3H)-one] displayed a melting point of 84 to 87 °C. The compound `CC(=O)c1sc(=O)n(-c2cccc(C)c2)c1C` [Compound 3c, 5-Acetyl-4-methyl-3-m-tolylthiazol-2(3H)-one] returned a melting point of 104 to 106 °C. On the same count and under the same terms, for `CC(=O)c1sc(=O)n(-c2cccc(C(F)(F)F)c2)c1C` [Compound 3d, 5-Acetyl-4-methyl-3-[3-(trifluoromethyl)phenyl]thiazol-2(3H)-one] the value was 147 to 150 °C.

The compound `Cc1cccc(-n2c(C)csc2=O)c1` [Compound 3e, 4-Methyl-3-m-tolyl-thiazol-2(3H)-one] yielded a melting point of 69 to 72 °C. Compound `CC(=O)c1sc(=O)n(COC(=O)c2ccccc2)c1C` [Compound 5b, (5-Acetyl-4-methyl-2-oxothiazol-3(2H)-yl)methyl benzoate] had a melting point of 121 to 123 °C.

The subject of a further series is HNE.
Assay: not given
The conditions noted are these: HNE inhibitor, Fig. 1; cited from earlier work.
As for `Cc1c(-c2ccnn2C)cc(C(=O)NCc2ccc(S(C)(=O)=O)cn2)c(=O)n1-c1cccc(C(F)(F)F)c1` [Alvelestat], the IC50 is 12 nM.

Broadly, the melting point is the temperature, or range, at which the solid turns liquid. Usually IC50 stands for the concentration needed to halve the response being measured.
